Each structure is given as a SMILES string. Where two headings read alike, the source gives them in different places.

Here are results for 16 molecules from publication PMC6384891, “An automated microliter-scale high-throughput screening system (MSHTS) for real-time monitoring of protein aggregation using quantum-dot nanoprobes” (Scientific Reports, 2019).

Assay [1] addresses T1, Aβ42 (Homo sapiens, UniProt P05067).
T1 construct: Human Aβ42 (4349-v, Peptide Institute); purchased Peptide Institute 4349-v
Nature of the assay: manual MSHTS system, Aβ aggregation inhibition. Type of assay: biochemical. The procedure: The automated MSHTS system used was based on the method described in the Supplementary Methods. In this study, EC50 values of the plant crude extract library and the compound library were measured by the automated MSHTS system and the manual MSHTS system[19],[20], respectively. All fluorescence micrograph images were taken using a 4x objective in the MSHTS systems. […]
concentrations of RA were incubated with 30 µM A β and 30 nM QD 655-labeled Aβ or QD605-labeled Aβ in a 1536-well plate according to our previous reports1,5. Fluorescence micrographs […]
presence of 600 and 120 µM RA.
(1 picture or pasted object on this page, not shown here) […]
QDAβ were incubated with various concentrations of chaperones i n a 1536-well plate for 24 h at 37 ° C and observed by fluorescence microscopy. C, E, and P indicate CRT , ERp57, and PDI, respectively. EC50 and the SD values were determined from the micrographs of three independent

Assay [2] has as its target T2, Aβ (Homo sapiens, UniProt P05067).
T2 construct: Human Aβ42 (4349-v, Peptide Institute); purchased Peptide Institute 4349-v
Put plainly: ThT assay of Aβ aggregation. It counts as biochemical. The procedure:
The ThT assay was conducted according to the method of Levine[10] modified in our laboratory.

Where [3] appears, read: 2nd screening, tropolone derivatives, read-out: EC50 [µM] by MSHTS system, Supplementary Table S3 (converted).
[4] abbreviates: Aβ aggregation, read-out: EC50 by ThT assay (TA), Fig. 3.
Setting [5] is: compound library, Aβ aggregation, read-out: EC50 by MSHTS system (MA), Fig. 3.
The mark [6] stands for this setting: screening of compound library by MSHTS.
Where [7] appears, read: tropolone derivatives, read-out: ThT [µM], EC50, Supplementary Table S4 (converted).
Where [8] appears, read: 1st screening, read-out: EC50 [µM] by MSHTS system, Supplementary Table S2 (converted).

T2 sequence (P05067 672-713 limits assumed): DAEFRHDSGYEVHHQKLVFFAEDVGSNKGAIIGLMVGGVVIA
T1 sequence (P05067 672-713 limits assumed): as above

As a reminder, the EC50 is the concentration at which the effect is half-maximal. Turning to `O=C1C=CC(=O)C=C1` [MO-100], in assay [1], the “Aβ aggregation inhibitory activity (in words)” value was “active” and the midpoint of the response, the EC50, lay at 56 µM.

As to `N#Cc1ccc(/N=N/c2ccc(O)c(=O)cc2)cc1C(F)(F)F` [TR-007], the EC50 in assay [1] (setting [3]) is 13.9 µM; in assay [2] (setting [4]) it was 4.86 ± 0.9 µM. In the case of `COc1ccc(-c2cccc([N+](=O)[O-])c2)ccc1=O` [MO-007], the EC50 in assay [1] (setting [5]) is 144 ± 62 µM. Moreover, in assay [1] (setting [6]), the “Aβ aggregation inhibitory activity (in words)” value is reported as “active”. In the case of `O=c1cccccc1O` [MO-073], in assay [2] (setting [4]), the EC50 was 1610 µM. For `COc1ccc(-c2ccc([N+](=O)[O-])cc2)ccc1=O` [MO-011], the EC50 in assay [1] (setting [5]) was found to be 200 ± 66 µM. For the same molecule, the “Aβ aggregation inhibitory activity (in words)” value in assay [1] (setting [6]) is reported as “active”. Turning to `N#Cc1cccc(/N=N/c2ccc(O)c(=O)cc2)c1` [TR-027], the EC50 was 38.7 µM in assay [1] (setting [3]) and 83 µM in assay [2] (setting [7]). For the molecule `O=c1ccc(/N=N/c2cc(C(F)(F)F)cc(C(F)(F)F)c2)ccc1O` [TR-004], the “Aβ aggregation inhibitory activity (in words)” value in assay [1] (setting [6]) is “no activity”. In the case of `O=c1ccc(-c2cccc([N+](=O)[O-])c2)ccc1O` [MO-006], the EC50 in assay [2] (setting [7]) was 75 µM. Regarding `O=c1ccc(/N=N/c2cc([N+](=O)[O-])cc([N+](=O)[O-])c2)ccc1O` [TR-003], the EC50 was 6.6 µM in assay [1] (tropolone derivatives, read-out: MSHTS [µM], EC50, Supplementary Table S4) and 18.4 µM in assay [2] (setting [7]).

With `O=c1ccc(-c2ccc([N+](=O)[O-])cc2)ccc1O` [MO-010], the values for the EC50 in assay [1] (setting [8]) and in assay [2] (setting [4]) were 52.5 µM and 144 ± 29 µM, respectively. The “Aβ aggregation inhibitory activity (in words)” value in assay [1] (setting [6]) is on record as “active”. On to `O=Nc1ccc(O)c(=O)cc1` [MO-020], for which the EC50 in assay [1] (setting [5]) was found to be 154 ± 23 µM; in assay [2] (setting [4]), 152 ± 15 µM. The “Aβ aggregation inhibitory activity (in words)” value in assay [1] (setting [6]) is on record as “active”. On to `Oc1cc2ccccc2cc1O` [MO-038], for which the EC50 in assay [1] (setting [8]) is 31.4 µM. Moreover, the “Aβ aggregation inhibitory activity (in words)” value in assay [1] (setting [6]) was “active”. Take `Nc1ccc(O)c(=O)cc1` [MO-009]: the figures for the EC50 in assay [1] (setting [8]) and in assay [2] (setting [7]) were 19.1 µM and 87.6 µM, respectively. In assay [1] (setting [6]), the “Aβ aggregation inhibitory activity (in words)” value is recorded as “active”. For `O=c1ccc(/N=N/c2ccc([N+](=O)[O-])cc2)ccc1O` [TR-001], the EC50 in assay [1] (setting [5]) turned out to be 258 µM. With `CN(C)c1ccc(B(O)O)cc1` [MO-074], the EC50 in assay [1] (setting [8]) is 53.1 µM. The “Aβ aggregation inhibitory activity (in words)” value in assay [1] (setting [6]) is on record as “active”.

On to `O=c1ccc(/N=N/c2cccc([N+](=O)[O-])c2)ccc1O` [TR-002], for which the EC50 in assay [1] (setting [3]) is 232 µM.
